# Patent US10018637B2, “Methods for treating inflammatory and other diseases and the use of biomarkers as predictors of clinical sensitivity to treatment with apremilast” (CELGENE INTERNATIONAL II SARL, priority 2015, dated 2018)
# Key:
# Ankylosing Spondylitis = details: after 24 weeks, largest study trial; placebo 22%; cited from earlier work
# [1] = tested on: ankylosing spondylitis patients; test: Response of ankylosing spondylitis patients to apremilast treatment, by biomarker-defined patient group; type: in vivo, human
# Protocol: In this example, a group of ankylosing spondylitis patients was identified based on expression profile of 49 biomarkers as being more likely to be responsive to a treatment with apremilast. In particular, Myriad RBM inflammation MAP biomarker panel (having 49 biomarkers) was used to profile 280 patient samples in the study, among which 255 patient samples produced measurable biomarker levels. In these 255 patient samples, 95 patient samples were treated with 20 mg apremilast (“Apremilast 20 mg Arm Group”). Within the Apremilast 20 mg Arm Group, 36 patient samples were responsive to the treatment and 59 patient samples were not responsive to the treatment. 80 patient samples were treated with 30 mg apremilast (“Apremilast 30 mg Arm Group”). Within Apremilast 30 mg Arm Group, 31 patient samples were responsive to the treatment and 49 patient samples were not responsive to the treatment. The remaining 80 patient samples were control samples (placebo arm).
# Unsupervised clustering was then used to analyze the biomarker expression profiles for these patient samples based on the 49 biomarkers (consensus clustering/distance (1-PCor)/Ward linkage method). These 49 biomarkers were Alpha-1-Antitrypsin, Alpha-2-Macroglobulin, Beta-2-Microglobulin, Brain-Derived Neurotrophic Factor, C-Reactive Protein, Complement C3, Eotaxin-1, Factor VII, Ferritin, Fibrinogen, Granulocyte-Macrophage Colony-Stimulating Factor, Haptoglobin, Intercellular Adhesion Molecule 1, Interferon gamma, Interleukin-1 alpha, Interleukin-1 beta, Interleukin-1 receptor antagonist, Interleukin-10, Interleukin-12 Subunit p40, Interleukin-12 Subunit p70, Interleukin-15, Interleukin-17, Interleukin-2, Interleukin-23, Interleukin-3, Interleukin-4, Interleukin-5, Interleukin-6, Interleukin-7, Interleukin-8, Macrophage Inflammatory Protein-1 alpha, Macrophage Inflammatory Protein-1 beta, Matrix Metalloproteinase-3, Matrix Metalloproteinase-9, MCP1, Stem Cell Factor, T-Cell-Specific Protein RANTES, Tissue Inhibitor of Metalloproteinases, Tumor Necrosis Factor alpha, Tumor Necrosis Factor beta, Tumor necrosis factor receptor 2, Vascular Cell Adhesion Molecule-1, Vascular Endothelial Growth Factor, Vitamin D-Binding Protein, von Willebrand Factor, Osteoprotegerin, Interleukin-18, RANKL, and Sclerostin.
# The results are shown in the plot of FIG. 1A. As shown, a group of 50 patients (cluster 4) were identified as representing about 30% of the total treatment arm population. […] In particular, within this group of 50 patients, the response rate was about 54%, higher than the response rate in the remaining patients which was about 31%.
# Each biomarker was then further analyzed for its association with the cluster 4 patient group. MCP1 cytokine was identified as being able to most strongly differentiate the cluster 4 group with the remaining patients. […] The threshold derived from the mid-point (or average) of the median of MCP1 low cluster and the median of non MCP1 low patients was 93.5 pg/ml (see the dash line in the right panel of FIG. 2A).
# When the threshold was calculated as the mid-point between median MCP1 level in cluster 4 patient group and median MCP1 level in the remaining patients, the threshold level was 93.5 pg/ml.
# A third method used to calculate a MCP1 threshold level was by calculating the mean of thresholds obtained from 10-fold cross validation (discussed above). In particular, each fold provided an optimal threshold according to the AUC metric when classifying for cluster membership. Then, the mean value of the 10 thresholds was calculated. Using this method, the threshold of MCP1 was calculated as 75.63 pg/ml. With this more restrictive learned threshold, the population selected into the MCP1 low group decreased while the response rate of the MCP1 low sub-group increased.
Compound,response rate (ASAS 20 response criteria) (Ankylosing Spondylitis),"patient samples responsive to the treatment ([1]; Apremilast 20 mg Arm Group, 95 patient samples)","patient samples responsive to the treatment ([1]; Apremilast 30 mg Arm Group, 80 patient samples)","response rate ([1]; MCP1 low group, threshold 75.63 pg/ml, apremilast 30 mg arm (22% of the patients))","response rate ([1]; MCP1 low group, threshold 93.5 pg/ml, apremilast 30 mg arm (45% of the patients))","response rate ([1]; MCP1 low group, threshold 93.5 pg/ml, both 20 mg and 30 mg arms (36% of the patients))","response rate ([1]; cluster 4 (MCP1 low patient group), 50 patients, 20 mg or 30 mg apremilast)",response rate ([1]; cluster 4 patients receiving 30 mg apremilast (25 patients)),"patients responded ([1]; cluster 4 patients receiving 30 mg apremilast, out of 25)","response rate ([1]; patient subgroup differentiated by MCP1 level (14% of total population), apremilast arm 20 mg or 30 mg, FIG. 2B)","response rate ([1]; patient subgroup differentiated by MCP1 level (20% of apremilast 30 mg arm), 30 mg apremilast, FIG. 2C)","response rate ([1]; remaining patients (not cluster 4), treatment arms)",response rate ([1]; remaining patients in the Apremilast 30 mg Arm Group (not cluster 4))
etanercept,57%,–,–,–,–,–,–,–,–,–,–,–,–
"CCOc1cc([C@@H](CS(C)(=O)=O)N2C(=O)c3cccc(NC(C)=O)c3C2=O)ccc1OC [apremilast, (+)-2-[1-(3-ethoxy-4-methoxyphenyl)-2-methylsulfonylethyl]-4-acetylaminoisoindoline-1,3-dione]",–,36,31,67%,56%,49%,about 54%,64%,16,about 62.5%,about 66.6%,about 31%,27%
